In patent US20240165054A1, “TREATMENT” (Verona Pharma PLC, priority 2022, published 2024):

Columns and labels:
[1] = tested on: patients with moderate to severe COPD; experiment: Clinical study of nebulised ensifentrine vs placebo in COPD: lung function (FEV1); format: in vivo, human; conditions: all subgroups of COPD patients in the study
Procedure: (§1) A clinical study was conducted to determine the efficacy of ensifentrine in treating COPD compared with placebo. Ensifentrine was administered by nebuliser at a dose of 3 mg twice daily (BID) for 24 weeks. The study was a multi-centre, randomized, double-blind, parallel-group, placebo-controlled trial with around 800 patients and 5:3 randomization.
(§2) The study population included patients aged 40-80 years with moderate to severe COPD (FEV1 30%-70% p.n., FEV1/forced vital capacity [FVC] ratio <0.7, with mMRC≥2). The randomization stratified (a) the use of stable background maintenance LAMA or LABA therapy use (approx. 50%. yes or no) and (b) cigarette smoking (current or former). Inhaled corticosteroid (ICS) maintenance therapy was permitted in up to 20% of patients under certain provisions.
(§3) The primary endpoint of the study was change from baseline in average FEV1 area under the curve (AUC)0-12 h post-dose at week 12. Secondary endpoints of the study included: peak FEV1 over 4 hours post-dose at Week 12; morning trough FEV1 at Week 12; and other endpoints including moderate/severe COPD exacerbations frequency and time to first moderate or severe COPD exacerbation over 24 Weeks.
Baseline FEV1 is the mean of the two measurements taken before study medication on the day of first dosing, i.e. ≤40 minutes and just prior to dosing, pre-dose on day 1. […]

[2] = tested on: patients with moderate to severe COPD; experiment: Clinical study of nebulised ensifentrine vs placebo in COPD: moderate/severe COPD exacerbations; format: in vivo, human
Procedure: as §1, §2, §3
Exacerbations were defined as worsening of 2 or more major symptoms (dyspnea, sputum volume, and sputum purulence) or worsening of any 1 major symptom together with any 1 of the following minor symptoms: sore throat, colds, fever without other cause, and increased cough or wheeze for at least 2 consecutive days. COPD exacerbations were considered to be of moderate severity if treatment with systemic corticosteroids and/or antibiotics was required and were considered to be severe if hospitalization was required.
The investigational product and placebo were provided in 2.5 mL unit dose format in an ampule and administered via a nebuliser.

COPD patients = conditions: vs placebo; population as given per drug; cited from earlier work

SMILES	Improvement in lung function in subgroups [1]	Reduction in relative risk of moderate or severe COPD exacerbation vs placebo ([2]; 3 mg BID by nebuliser, over 24 weeks, including 52% of patients on background bronchodilator medications)	Reduction in the frequency of COPD exacerbations compared with other treatments ([2]; comparison with literature treatments of Table 4)	Time to first exacerbation / frequency of COPD exacerbations (conclusion) ([2]; over 24 weeks)	Rate Reduction (=1-Rate Ratio) of COPD exacerbations (COPD patients)
COc1cc2c(cc1OC)-c1c/c(=N\c3c(C)cc(C)cc3C)n(CCNC(N)=O)c(=O)n1CC2 [Ensifentrine, N-(2-{(2E)-9,10-dimethoxy-4-oxo-2-[(2,4,6-trimethylphenyl)imino]-6,7-dihydro-2H-pyrimido[6,1-α]isoquinolin-3(4H)-yl}ethyl)urea]	improvement in lung function with ensifentrine that was statistically significant	approximately 40%	greater reduction in the frequency of COPD exacerbations than other treatments	particularly effective in increasing the time to first exacerbation	
CS(=O)(=O)Nc1ccc(C(=O)O[C@@H](Cc2c(Cl)c[n+]([O-])cc2Cl)c2ccc(OC(F)F)c(OCC3CC3)c2)cc1OCC1CC1 [Tanimilast]					13-28% all doses
